Patent publication US9983218B2, “Indole and indoline derivatives and methods of use thereof” (AbbVie Inc., priority 2008, dated 2018)
Like-named read-outs stand apart in the source and are kept apart here.

Tested on: SK-N-SH human neuroblastoma cells
Assay: Serum deprivation/JC-1 mitochondrial membrane potential (MMP) assay
Assay type: cell-based
Conditions: Homo sapiens; for Emax: read-out: JC-1 max %
Description: SK-N-SH human neuroblastoma cells obtained from American Type Culture Collection (Rockville, Md.) were maintained in the log phase of growth in Minimal Essential Media (MEM), 10% heat inactivated fetal calf serum and 100 units/mL antibiotic-antimycotic (AA). Cells were cultured and maintained in a humidified incubator at 37° C. under 5% CO2 and 95% air. Cells were trypsinized (0.25%) and subcultured every 3 days and used from 15-18 passages. All cell culture supplies were obtained from Invitrogen (Carlsbad, Calif.).
SK-N-SH cells were plated 2-3 days in advance at a concentration of 50,000 cells/well onto collagen coated black-walled 96 well plates (Becton-Dickinson, Bedford, Mass.) in a total volume of 200 μL. On day of experimental treatment, the media containing serum was aspirated from each well and rinsed once with MEM/1% AA without serum. The cells then were incubated overnight in 100 μL of MEM/1% AA (no serum) with and without dimebolin or novel chemical entities overnight for ˜18 hours. The following day, JC-1 dye (5,5′,6,6′-tetrachloro-1,1′,3,3′-tetraethylbenzimidazolcarbocyanide) was diluted 1:10 into MEM media according to the JC-1 Mitochondrial Membrane Potential Assay Kit: (Cayman Chemical Company, Ann Arbor, Mich.) and then 10 μL of the JC-1 dye solution was added to each well. The plates were centrifuged for 5 minutes at 400×g at room temperature followed by 35 minute incubation at 37° C. The plates were washed twice with 200[…] μL of provided Assay Buffer followed an addition of 100 μL of Assay Buffer to each well. The plates were read with an excitation and emission of 560 nm and 595 nM for red fluorescence and with an excitation and emission of 485 nm and 535 nM for green fluorescence to determine the final JC-1 value taking the red to green fluorescence ratio. This assay is based on change in mitochondrial membrane potential (MMP) using this lipophilic cationic dye, JC-1, by monitoring the changes in the ratio of red to green fluorescence as the MMP depolarizes. This change in MMP reflects the health of the cell with healthy, viable cells have a high JC-1 ratio and high MMP whereas apoptotic, unhealthy cells have a low JC-1 ratio or low MMP.
For the ability of compounds to reverse the stress due to serum deprivation and increase the JC-1 ratio, the percent maximal intensity in JC-1 ratio was normalized to that induced by the peak value for 10 μM dimebolin and plotted against the compound concentration to calculate EC50 values and to control for plate-to-plate variability. Concentration-response data were analyzed using GraphPad Prism (San Diego, Calif.); the EC50 values were derived from a single curve fit to the mean data of n=2-3, in duplicates.
All compounds were dissolved in dimethyl sulfoxide at 10 mM stock solutions and tested at a concentration that the dimethyl sulfoxide levels never exceeded 1%.

[1] = SK-N-SH, percent maximal intensity in JC-1 ratio normalized to 10 μM dimebolin
[2] = SK-N-SH cells, serum deprivation ~18 hours, JC-1 ratio normalized to peak value for 10 μM dimebolin, single curve fit to mean data of n=2-3, read-out: EC50

Row | Structure (SMILES) | Emax [1] | EC50 [2] | EC50 (SK-N-SH, 18 h) | Emax (SK-N-SH)
1 | Cc1ccc2c(c1)c1c(n2S(=O)(=O)c2cccnc2)CC2CCC1N2C (stereo not drawn) [Example 77, 2,11-dimethyl-5-(pyridin-3-ylsulfonyl)-5,6,7,8,9,10-hexahydro-7,10-epiminocyclohepta[b]indole] | 223% | 9.22 µM |  | 
2 | Cc1ccc(CCn2c3c(c4ccccc42)C2CCC(C3)N2C)cn1 (stereo not drawn) [Example 78, 11-methyl-5-[2-(6-methylpyridin-3-yl)ethyl]-5,6,7,8,9,10-hexahydro-7,10-epiminocyclohepta[b]indole] | 211% | 9.69 µM |  | 
3 | Cc1ccc(CCn2c3c(c4cc(F)ccc42)C2CCC(C3)N2C)cc1 (stereo not drawn) [Example 84, 2-fluoro-11-methyl-5-[2-(4-methylphenyl)ethyl]-5,6,7,8,9,10-hexahydro-7,10-epiminocyclohepta[b]indole] | 173% | 6.76 µM |  | 
4 | CN1C2CCC1c1c(n(CCc3ccc(Cl)cc3)c3ccc(Br)cc13)C2 (stereo not drawn) [Example 87, 2-bromo-5-[2-(4-chlorophenyl)ethyl]-11-methyl-5,6,7,8,9,10-hexahydro-7,10-epiminocyclohepta[b]indole] | 139% | 3.33 µM |  | 
5 | Cc1ccc(S(=O)(=O)n2c3c(c4cc(Br)ccc42)C2CCC(C3)N2C)cc1 (stereo not drawn) [Example 90, 2-bromo-11-methyl-5-[(4-methylphenyl)sulfonyl]-5,6,7,8,9,10-hexahydro-7,10-epiminocyclohepta[b]indole] | 176% | 3.43 µM |  | 
6 | COc1ccc2c(c1)c1c(n2CCc2ccc(C)nc2)CC2CCC1N2C (stereo not drawn) [Example 91, 2-methoxy-11-methyl-5-[2-(6-methylpyridin-3-yl)ethyl]-5,6,7,8,9,10-hexahydro-7,10-epiminocyclohepta[b]indole] | 129% | 6.33 µM |  | 
7 | COc1cccc2c3c(n(CCc4ccc(Cl)cc4)c12)CC1CCC3N1C (stereo not drawn) [Example 96, 5-[2-(4-chlorophenyl)ethyl]-4-methoxy-11-methyl-5,6,7,8,9,10-hexahydro-7,10-epiminocyclohepta[b]indole] | 169% | 4.41 µM |  | 
8 | CN1C2CCC1c1c(n(CCc3ccc(Cl)cc3)c3ccc(OC(F)(F)F)cc13)C2 (stereo not drawn) [Example 97, 5-[2-(4-chlorophenyl)ethyl]-11-methyl-2-(trifluoromethoxy)-5,6,7,8,9,10-hexahydro-7,10-epiminocyclohepta[b]indole] |  |  | 5.13 µM | 164%
9 | CN1C2CCC1c1c(n(CCc3ccc(Cl)cc3)c3ccc(C(F)(F)F)cc13)C2 (stereo not drawn) [Example 98, 5-[2-(4-chlorophenyl)ethyl]-11-methyl-2-(trifluoromethyl)-5,6,7,8,9,10-hexahydro-7,10-epiminocyclohepta[b]indole] | 176% | 7.26 µM |  | 
10 | Cc1ccc(CCn2c3c(c4cc(C(C)C)ccc42)C2CCC(C3)N2C)cn1 (stereo not drawn) [Example 99, 2-isopropyl-11-methyl-5-[2-(6-methylpyridin-3-yl)ethyl]-5,6,7,8,9,10-hexahydro-7,10-epiminocyclohepta[b]indole] | 138% | 3.07 µM |  | 
11 | Cc1ccc(CCn2c3c(c4cc(C5CC5)ccc42)C2CCC(C3)N2C)cn1 (stereo not drawn) [Example 103, 2-cyclopropyl-11-methyl-5-[2-(6-methylpyridin-3-yl)ethyl]-5,6,7,8,9,10-hexahydro-7,10-epiminocyclohepta[b]indole] | 180% | 4.17 µM |  | 
12 | Cc1ccc(CCn2c3c(c4cc(C(C)(C)C)ccc42)C2CCC(C3)N2C)cn1 (stereo not drawn) [Example 104, 2-tert-butyl-11-methyl-5-[2-(6-methylpyridin-3-yl)ethyl]-5,6,7,8,9,10-hexahydro-7,10-epiminocyclohepta[b]indole] | 178% | 4.16 µM |  | 
13 | CN1C2CCC1c1c(n(CCc3ccc(Cl)cc3)c3ccc(C(C)(C)C)cc13)C2 (stereo not drawn) [Example 105, 2-tert-butyl-5-[2-(4-chlorophenyl)ethyl]-11-methyl-5,6,7,8,9,10-hexahydro-7,10-epiminocyclohepta[b]indole] | 129% | 3.88 µM |  | 
14 | Cc1ccc(CCn2c3c(c4cc(-c5ccc(Cl)cc5)ccc42)C2CCC(C3)N2C)cn1 (stereo not drawn) [Example 106, 2-(4-chlorophenyl)-11-methyl-5-[2-(6-methylpyridin-3-yl)ethyl]-5,6,7,8,9,10-hexahydro-7,10-epiminocyclohepta[b]indole] | 238% | 5.73 µM |  | 
15 | CN1C2CCC1c1c(n(CCc3ccc(Cl)cc3)c3ccc(-c4ccc(Cl)cc4)cc13)C2 (stereo not drawn) [Example 107, 2-(4-chlorophenyl)-5-[2-(4-chlorophenyl)ethyl]-11-methyl-5,6,7,8,9,10-hexahydro-7,10-epiminocyclohepta[b]indole] | 153% | 4.08 µM |  | 
16 | Cc1ccc(CCn2c3c(c4cc(-c5cn[nH]c5)ccc42)C2CCC(C3)N2C)cn1 (stereo not drawn) [Example 112, 11-methyl-5-[2-(6-methylpyridin-3-yl)ethyl]-2-(1H-pyrazol-4-yl)-5,6,7,8,9,10-hexahydro-7,10-epiminocyclohepta[b]indole] | 101% | 3.43 µM |  | 
17 | Cc1ccc2c(c1)[C@@H]1[C@H]3CC[C@@H](C[C@@H]1N2CCc1ccc(C)nc1)N3C [Example 113, (5aS,7S,10R,10aR)-2,11-dimethyl-5-[2-(6-methylpyridin-3-yl)ethyl]-5,5a,6,7,8,9,10,10a-octahydro-7,10-epiminocyclohepta[b]indole] | 353% | 2.99 µM |  | 
18 | Cc1ccc2c(c1)c1c(n2/C=C/c2ccc(C)nc2)CC2CCCC1N2C (stereo not drawn) [Example 122, 2,12-dimethyl-5-[(E)-2-(6-methylpyridin-3-yl)vinyl]-6,7,8,9,10,11-hexahydro-5H-7,11-epiminocycloocta[b]indole] | 141% | 5.29 µM |  | 
19 | Cc1ccc(CCn2c3c(c4cc(OC(F)(F)F)ccc42)C2CCCC(C3)N2)cn1 (stereo not drawn) [Example 140, 5-[2-(6-methylpyridin-3-yl)ethyl]-2-(trifluoromethoxy)-6,7,8,9,10,11-hexahydro-5H-7,11-epiminocycloocta[b]indole] | 194% | 3.32 µM |  | 
20 | Cc1ccc2c(c1)c1c(n2/C=C/c2ccc(C)nc2)C2CCN(CC2)C1 [Example 146, 9-methyl-6-[(E)-2-(6-methylpyridin-3-yl)vinyl]-3,4,5,6-tetrahydro-1H-2,5-ethanoazepino[4,3-b]indole] | 264% | 2.84 µM |  | 
21 | Cc1ccc2c(c1)c1c(n2/C=C\c2ccc(C)nc2)C2CCN(CC2)C1 [Example 147, 9-methyl-6-[(Z)-2-(6-methylpyridin-3-yl)vinyl]-3,4,5,6-tetrahydro-1H-2,5-ethanoazepino[4,3-b]indole] | 266% | 2.53 µM |  | 
22 | Cc1ccc2c(c1)c1c(n2CCc2ccc(C)nn2)C2CCN(CC2)C1 [Example 148, 9-methyl-6-[2-(6-methylpyridazin-3-yl)ethyl]-3,4,5,6-tetrahydro-1H-2,5-ethanoazepino[4,3-b]indole] | 99% | 3.52 µM |  | 
23 | Cc1ccc2c(c1)c1c(n2CCc2ccccc2F)C2CCN(CC2)C1 [Example 150, 6-[2-(2-fluorophenyl)ethyl]-9-methyl-3,4,5,6-tetrahydro-1H-2,5-ethanoazepino[4,3-b]indole] | 134% | 3.6 µM |  | 
24 | Cc1ccc2c(c1)c1c(n2CCc2ccc(Cl)cc2)C2CCN(CC2)C1 [Example 151, 6-[2-(4-chlorophenyl)ethyl]-9-methyl-3,4,5,6-tetrahydro-1H-2,5-ethanoazepino[4,3-b]indole] | 121% | 5.38 µM |  | 
25 | Cc1ccc2c(c1)c1c(n2CCc2cccc(C(F)(F)F)c2)C2CCN(CC2)C1 [Example 152, 9-methyl-6-{2-[3-(trifluoromethyl)phenyl]ethyl}-3,4,5,6-tetrahydro-1H-2,5-ethanoazepino[4,3-b]indole] | 156% | 3.86 µM |  | 
26 | CCOC(=O)Cn1c2c(c3cc(C)ccc31)CN1CCC2CC1 [Example 154, ethyl (9-methyl-1,3,4,5-tetrahydro-6H-2,5-ethanoazepino[4,3-b]indol-6-yl)acetate] | 31% | 30 µM |  | 
27 | Cc1ccc2c(c1)c1c(n2CC(=O)Nc2ccc(Cl)cc2)C2CCN(CC2)C1 [Example 155, N-(4-chlorophenyl)-2-(9-methyl-1,3,4,5-tetrahydro-6H-2,5-ethanoazepino[4,3-b]indol-6-yl)acetamide] | 63% | 7.53 µM |  | 
